Data taken from US11534457B2, “Use of dextran sulfate” (priority 2017, dated 2022).

System: severe traumatic brain injury (sTBI)
Experiment: sTBI in rats, brain gene expression arrays and pathway analysis (Example 9)
Type: in vivo, Male Wistar rats
Parameters: key to z score, canonical pathway Dendritic Cell Maturation / z score, canonical pathway Adrenomedullin Signaling pathway / z score, canonical pathway Endothelin-1 Signaling / effect on canonical pathway Adrenomedullin Signaling pathway / effect on canonical pathway Endothelin-1 Signaling / effect on canonical pathway Dendritic Cell Maturation / Ingenuity canonical pathway Adrenomedullin signaling pathway, z score / Ingenuity canonical pathway FLT3 Signaling in Hematopoietic Progenitor Cells, z score / Ingenuity canonical pathway Opioid Signaling Pathway, z score / Ingenuity canonical pathway VDR/RXR Activation, z score / Ingenuity canonical pathway Neuropathic Pain Signaling In Dorsal Horn Neurons, z score / Ingenuity canonical pathway STAT3 Pathway, z score / Ingenuity canonical pathway IL-1 Signaling, z score / Ingenuity canonical pathway IL-6 Signaling, z score / Ingenuity canonical pathway NF-κB Signaling, z score / Ingenuity canonical pathway Role of NFAT in Cardiac Hypertrophy, z score / Ingenuity canonical pathway PPARα/RXRα Activation, z score: *: ambiguous effect
Conditions: TBI + 5 mg/kg LMW-DS, 7 days after TBI
Description: The experimental protocol used in this study was approved by the Ethical Committee of the Catholic University of Rome, according to international standards and guidelines for animal care. Male Wistar rats of 300-350 g body weight were fed with standard laboratory diet and water ad libitum in a controlled environment. As the anesthetic mixture, the animals received 35 mg/kg b.w. ketamine and 0.25 mg/kg body weight midazolam by i.p. injection. Severe traumatic brain injury (sTBI) was induced by dropping a 450 g weight from 2 m height on to the rat head that had been protected by a metal disk previously fixed on the skull, according to the “weight drop” impact acceleration model (Marmarou et al., A new model of diffuse brain injury in rats. Part I: Pathophysiology and biomechanics. J Neurosurg. 1994; 80: 291-300). […] At the end of each period of treatment, rats were anesthetized again and then immediately sacrificed.
LMW-DS (Tikomed AB) was provided at a stock concentration of 20 mg/ml and was kept in a temperature-monitored refrigerator at 4° C. LMW-DS aliquots were diluted to the appropriate dosing concentration in sterile saline prior to delivery of a single subcutaneous injection.
Three doses of LMW-DS were administered subcutaneously 30 minutes post-TBI. The animals were sacrificed at 2 days post-TBI. The animals were divided into the following subgroups:
Three doses of LMW-DS were administered subcutaneously 30 minutes post-TBI. The animals were sacrificed at 7 days post-TBI. The animals were divided into the following subgroups:
An in vivo craniectomy was performed on all animals during anesthesia. After carefully removing the rat's skull, the brain was exposed and removed with a surgical spatula and quickly dropped in RNALater and preserved at 4° C. for further processing.
RNA extraction and array processing was carried out by SourceBioscience. The arrays used were the Agilent Rat expression arrays.
Statistical analysis was carried out using the Metaboanalyst software package. Gene expression changes of 10% with a p<0.05 were regarded as significant.
Pathway analysis of the differentially regulated genes was carried out using the Ingenuity pathway analysis package. The analysis was performed with special reference to pathways and molecular processes and diseases associated with neurodegenerative disease, including dementia, Alzheimer's disease, ALS, TBI and stroke, and with scarring and fibrosis, including glaucoma and normal pressure hydrocephalus (NPH) after subarachnoid haemorrhage.

low molecular weight dextran sulfate [LMW-DS]
z score: Cellular homeostasis: 1.615
z score: Chemotaxis: 1.873
z score: Concentration of lipid: −0.575
z score: Development of body axis: 1.213
z score: Development of body trunk: 1.09
z score: Development of carcinoma: 0.152
z score: Development of connective tissue cells: 1.638
z score: Development of epithelial tissue: 0.262
z score: Development of genitourinary system: −0.336
z score: Development of head: 1.213
z score: Development of neurons: 1.106
z score: Development of sensory organ: 0.669
z score: Development of vasculature: 0.295
z score: Differentiation of bone: 1.012
z score: Differentiation of bone cells: 0.85
z score: Differentiation of connective tissue cells: 0.769
z score: Digestive organ tumor: −1.348
z score: Digestive system cancer: −1.792
z score: Endocrine gland tumor: −0.067
z score: Expression of RNA: 1.797
z score: Extracranial solid tumor: 0.369
z score: Failure of kidney: 0.555
z score: Formation of eye: 1.664
z score: Gastrointestinal tumor: −1.215
z score: Genital tumor: 0.305
z score: Genitourinary carcinoma: 1.131
z score: Genitourinary tumor: 1.388
z score: Glucose metabolism disorder: 0.439
z score: Growth of connective tissue: −0.324
z score: Growth of epithelial tissue: −1.58
z score: Growth of tumor: 2.295
z score: Head and neck cancer: −1.154
z score: Head and neck tumor: −0.355
z score: Hematologic cancer: −1.725
z score: Hematologic cancer of cells: −1.486
z score: Hematopoietic neoplasm: −1.002
z score: Intestinal tumor: −1.09
z score: Invasion of cells: 1.32
z score: Leukocyte migration: 3.062
z score: Lymphatic system tumor: −0.956
z score: Lymphocytic cancer: −1.486
z score: Lymphocytic neoplasm: −1.486
z score: Lymphoid cancer: −0.956
z score: Lymphoma: −1.224
z score: Lymphoproliferative disorder: −1.727
z score: Lymphoreticular neoplasm: −1.224
z score: Malignant genitourinary solid tumor: 0.346
z score: Malignant solid tumor: 0.423
z score: Microtubule dynamics: 1.82
z score: Migration of cells: 2.659
z score: Migration of endothelial cells: 2.16
z score: Morbidity or mortality: −2.848
z score: Necrosis: 0.228
z score: Necrosis of epithelial tissue: 1.674
z score: Neoplasia of cells: 0.474
z score: Neoplasia of leukocytes: −1.486
z score: Non-hematologic malignant neoplasm: −0.243
z score: Non-hematological solid tumor: 0.021
z score: Non-melanoma solid tumor: 0.01
z score: Obesity: 0.493
z score: Organismal death: −2.885
z score: Organization of cytoskeleton: 2.174
z score: Pelvic tumor: 0.445
z score: Peripheral vascular disease: 1
z score: Proliferation of connective tissue cells: −0.747
z score: Proliferation of epithelial cells: −1.196
z score: Quantity of cells: 0.634
z score: Quantity of connective tissue: 0.609
z score: Renal impairment: 0.555
z score: Secretion of molecule: 1.386
z score: Sensory system development: −0.307
z score: Size of body: 0.748
z score: Skin lesion: −0.111
z score: Skin tumor: −2.396
z score: Solid tumor: 1.29
z score: Synthesis of lipid: 1.937
z score: Transcription: 1.317
z score: Transcription of RNA: 1.221
z score: Transport of molecule: 1.854
z score: Tumorigenesis of tissue: −0.832
z score: Vasculogenesis: 0.507
Ingenuity canonical pathway Acute Phase Response Signaling, z score (relative to control): 1.89
Ingenuity canonical pathway Adrenomedullin signaling pathway, z score (relative to control): −0.632
Ingenuity canonical pathway Cardiac Hypertrophy Signaling, z score (relative to control): 1
Ingenuity canonical pathway Colorectal Cancer Metastasis Signaling, z score (relative to control): −0.378
Ingenuity canonical pathway Dendritic Cell Maturation, z score (relative to control): 1.897
Ingenuity canonical pathway ERK5 Signaling, z score (relative to control): −0.447
Ingenuity canonical pathway ERK/MAPK Signaling, z score (relative to control): 1
Ingenuity canonical pathway Endothelin-1 Signaling, z score (relative to control): 1.633
Ingenuity canonical pathway Fcγ Receptor-mediated Phagocytosis in Macrophages and Monocytes, z score (relative to control): 2.236
Ingenuity canonical pathway GNRH Signaling, z score (relative to control): 2
Ingenuity canonical pathway HMGB1 Signaling, z score (relative to control): 1.134
Ingenuity canonical pathway IL-1 Signaling, z score (relative to control): 1
Ingenuity canonical pathway IL-6 Signaling, z score (relative to control): 1
Ingenuity canonical pathway IL-8 Signaling, z score (relative to control): 2.646
Ingenuity canonical pathway ILK Signaling, z score (relative to control): 1.89
Ingenuity canonical pathway Leukocyte Extravasation Signaling, z score (relative to control): 1.342
Ingenuity canonical pathway NF-κB Signaling, z score (relative to control): *
Ingenuity canonical pathway Neuroinflammation Signaling Pathway, z score (relative to control): 1.941
Ingenuity canonical pathway Opioid Signaling Pathway, z score (relative to control): *
Ingenuity canonical pathway Osteoarthritis Pathway, z score (relative to control): −1
Ingenuity canonical pathway PI3K Signaling in B Lymphocytes, z score (relative to control): 1.89
Ingenuity canonical pathway PKCθ Signaling in T Lymphocytes, z score (relative to control): 2
Ingenuity canonical pathway PPAR Signaling, z score (relative to control): −1.342
